From US12642271B2, “Active compound combinations comprising a (thio)carboxamide derivative and a fungicidal compound” (Bayer CropScience Aktiengesellschaft, priority 2011, dated 2026)
Values joined by “and” are separate entries in the source; they are usually repeats but may differ in a detail not shown here. Equal values may be shown once. Read-outs that look alike come from different tables or passages of the source.

Columns and labels:
[1] = system: Fusarium nivale (var. majus); experiment: Fusarium nivale (var. majus)-test (wheat)/preventive
Procedure: After the spray coating has been dried, the plants are slightly injured by using a sandblast and afterwards they are sprayed with a conidia suspension of Fusarium nivale (var. majus).
The plants are placed in the greenhouse under a translucent incubation cabinet at a temperature of approximately 10° C. and a relative atmospheric humidity of approximately 100%.
The test is evaluated 5 days after the inoculation.

[2] = system: Venturia inaequalis; experiment: Venturia test (apples)/preventive; details: for pest or weed control at 0.5 ppm / pest or weed control at 0.25 ppm: Venturia inaequalis, 240 h; for pest or weed control at 0.25 ppm: 0.25 ppm a.i.
Procedure: After the spray coating has dried on, the plants are inoculated with an aqueous conidia suspension of the causal agent of apple scab (Venturia inaequalis) and then remain for 1 day in an incubation cabinet at approximately 20° C. and a relative atmospheric humidity of 100%.
The plants are then placed in a greenhouse at approximately 21° C. and a relative atmospheric humidity of approximately 90%.
The test is evaluated 10 days after the inoculation.

[3] = system: Phytophthora infestans; experiment: whole plant or invertebrate; format: in vivo
[4] = system: Septoria tritici; experiment: Septoria tritici-test (wheat)/preventive; format: in vivo; details: preventive, evaluated 21 days after inoculation
[5] = system: Alternaria solani; experiment: Alternaria test (tomatoes)/preventive; format: in vivo
[6] = system: Puccinia triticina; experiment: Puccinia triticina-test (wheat)/preventive; format: in vivo; details: preventive, evaluated 8 days after inoculation; for pest or weed control at 20 ppm: application rate 20 ppm a.i.; for Efficacy in % found: application rate 400 ppm a.i.
[7] = system: Sphaerotheca fuliginea; experiment: Sphaerotheca test (cucumbers)/preventive; format: in vivo; details: for pest or weed control at 0.25 ppm / pest or weed control at 0.5 ppm: Podosphaera fuliginea, 168 h, read-out: Efficacy in % found; for pest or weed control at 0.25 ppm: 0.25 ppm a.i.; for Efficacy in % found: Table 4d
[8] = system: Leptosphaeria nodorum; experiment: Leptosphaeria nodorum test (wheat)/preventive; format: in vivo; details: for pest or weed control at 10 ppm / pest or weed control at 40 ppm / pest or weed control at 80 ppm: Parastagonospora nodorum, 192 h, read-out: Efficacy in % found; for pest or weed control at 40 ppm: 40 ppm a.i.
[9] = system: Blumeria graminis f.sp. hordei; experiment: Blumeria test (barley)/preventive; format: in vivo; details: for pest or weed control at 10 ppm / pest or weed control at 20 ppm: Blumeria graminis, 168 h, read-out: Efficacy in % found
[10] = system: Pyrenophora teres; experiment: Pyrenophora teres-test (barley)/preventive; format: in vivo; details: preventive, evaluated 8 days after inoculation
[11] = system: Botrytis cinerea; experiment: Botrytis test (beans)/preventive
Procedure: After the spray coating has dried on, 2 small pieces of agar covered with growth of Botrytis cinerea are placed on each leaf. The inoculated plants are placed in a darkened chamber at 20° C. and a relative atmospheric humidity of 100%. 2 days after the inoculation, the size of the lesions on the leaves is evaluated.

[12] = read-out: Efficacy in % found, Table 2b
[13] = Phytophthora infestans, 72 h, read-out: Efficacy in % found
[14] = Zymoseptoria tritici, 504 h, application rate 10 ppm a.i., read-out: Efficacy in % found
[15] = Alternaria solani, 72 h, Table 3a, 0.5 ppm a.i., read-out: Efficacy in % found
[16] = Alternaria solani, 72 h, Table 3b, read-out: Efficacy in % found
[17] = Alternaria solani, 72 h, Table 3b, 0.5 ppm, read-out: Efficacy in % found
[18] = application rate 10 ppm, wheat, preventive, evaluated 8 days after inoculation
[19] = Zymoseptoria tritici, 504 h, application rate 20 ppm a.i., read-out: Efficacy in % found
[20] = Puccinia triticina, 192 h, read-out: Efficacy in % found

`CC(C)c1ccccc1CN(C(=O)c1c(C(F)F)nn(C)c1F)C1CC1` [A1, N-cyclopropyl-3-(difluoromethyl)-5-fluoro-N-(2-isopropylbenzyl)-1-methyl-1H-pyrazole-4-carboxamide] showed a pest or weed control at 10 ppm ([1]; Microdochium nivale, in Triticum aestivum, 120 h, read-out: Efficacy in % found, Table 8a, 10 ppm) of 0%, a pest or weed control at 40 ppm ([1]; Microdochium nivale, in Triticum aestivum, 120 h, read-out: Efficacy in % found, Table 8a, 40 ppm) of 29% and a pest or weed control at 0.5 ppm ([2]; read-out: Efficacy in % found, Table 2a, 0.5 ppm a.i.) of 57%. It also gave a pest or weed control at 0.25 ppm [2, 12] of 31%, a pest or weed control at 0.25 ppm ([2]; read-out: Efficacy in % found, Table 2c) of 0% and a pest or weed control at 0.5 ppm ([2]; read-out: Efficacy in % found, Table 2f, 0.5 ppm a.i.) of 29%. For the same molecule, the pest or weed control at 0.25 ppm [3, 13] was 0%, the pest or weed control at 100 ppm [3, 13] was 0% and the pest or weed control at 10 ppm [4, 14] was 50%. It also gave a pest or weed control at 0.5 ppm [5, 15] of 38%, a pest or weed control at 0.25 ppm [5, 16] of 53% and a pest or weed control at 0.5 ppm [5, 17] of 59%. For the same molecule, the pest or weed control at 0.5 ppm ([5]; Alternaria solani, 72 h, Table 3c, 0.5 ppm, read-out: Efficacy in % found) was 16%, the pest or weed control at 62.5 ppm ([6]; Puccinia triticina, 192 h, application rate 62.5 ppm a.i., read-out: Efficacy in % found) was 57% and the pest or weed control at 0.25 ppm ([7]; Table 4a) was 19%. For the same molecule, the pest or weed control at 0.5 ppm ([7]; Table 4a, 0.5 ppm a.i.) was 69%, the pest or weed control at 0.25 ppm ([7]; Table 4b) was 48% and the pest or weed control at 0.25 ppm ([7]; Table 4c) was 21%. It also gave a pest or weed control at 10 ppm ([8]; Table 9a, 10 ppm a.i.) of 29%, a pest or weed control at 40 ppm ([8]; Table 9a) of 71% and a pest or weed control at 10 ppm ([8]; Table 9b, 10 ppm a.i.) of 0%. The pest or weed control at 10 ppm ([8]; Table 9c, 10 ppm a.i.) was 50%.
`Cn1nc(C(F)F)c(C(=O)N(Cc2c(C(F)(F)F)ccc(Cl)c2F)C2CC2)c1F` [A18, N-[3-chloro-2-fluoro-6-(trifluoromethyl)benzyl]-N-cyclopropyl-3-(difluoromethyl)-5-fluoro-1-methyl-1H-pyrazole-4-carboxamide] showed a pest or weed control at 10 ppm ([1]; Microdochium nivale, in Triticum aestivum, 120 h, read-out: Efficacy in % found, Table 8b, 10 ppm a.i.) of 43%, a pest or weed control at 0.25 ppm [2, 12] of 0% and a pest or weed control at 0.25 ppm [3, 13] of 0%. It also gave a pest or weed control at 100 ppm [3, 13] of 32%, a pest or weed control at 10 ppm [4, 14] of 89% and a pest or weed control at 10 ppm ([9]; Table 6e, 10 ppm a.i.) of 29%. It also gave a pest or weed control at 10 ppm ([9]; Table 6d, 10 ppm) of 56%, a pest or weed control at 0.5 ppm [5, 15] of 30% and a pest or weed control at 0.25 ppm [5, 16] of 30%. The pest or weed control at 0.5 ppm [5, 17] was 43%, the pest or weed control at 10 ppm ([6]; Puccinia triticina, 192 h, application rate 10 ppm a.i., read-out: Efficacy in % found) was 33% and the pest or weed control at 0.25 ppm ([7]; Table 4c) was 13%. It also gave a pest or weed control at 10 ppm [8, 18] of 0%.
In the case of `CC(C1CC1)C(O)(Cn1cncn1)c1ccc(Cl)cc1` (stereo not drawn) [B1.5, cyproconazole], the pest or weed control at 20 ppm [4, 19] is reported as 29%, the pest or weed control at 20 ppm ([9]; Table 6d) is reported as 78% and the “Efficacy in % found” value ([10]; application rate 20 ppm a.i.) is reported as 0%. The pest or weed control at 20 ppm [6, 20] was 56%, the pest or weed control at 0.5 ppm ([7]; Table 4c, 0.5 ppm a.i.) was 30% and the pest or weed control at 80 ppm ([8]; Table 9a, 80 ppm a.i.) was 29%.
In the case of `CC1(C(=O)Nc2ccc(O)c(Cl)c2Cl)CCCCC1` [B1.16, fenhexamid], the “Efficacy in % found” value ([11]; Table 5a, 2.5 ppm a.i.) is reported as 51%, the “Efficacy in % found” value ([11]; Table 5b, 2 ppm a.i.) is reported as 0% and the pest or weed control at 50 ppm ([5]; Alternaria solani, 72 h, Table 3b, 50 ppm, read-out: Efficacy in % found) is reported as 22%.
With `OC(Cc1ccccc1Cl)(Cn1nc[nH]c1=S)C1(Cl)CC1` (stereo not drawn) [B1.41, prothioconazole] the pest or weed control at 80 ppm ([4]; Zymoseptoria tritici, 504 h, application rate 80 ppm a.i., read-out: Efficacy in % found) was 43%, the “Efficacy in % found” value ([10]; application rate 20 ppm a.i.) was 14% and 22% and the pest or weed control at 2 ppm ([5]; Alternaria solani, 72 h, Table 3c, 2 ppm, read-out: Efficacy in % found) was 0%. The pest or weed control at 20 ppm [6, 20] was 11% and the pest or weed control at 80 ppm ([6]; Puccinia triticina, 192 h, application rate 80 ppm a.i., read-out: Efficacy in % found) was 11%.
In the case of `O=C(NCCc1ncc(C(F)(F)F)cc1Cl)c1ccccc1C(F)(F)F` [B2.6, fluopyram], the pest or weed control at 20 ppm [4, 19] is reported as 57%, the pest or weed control at 20 ppm ([9]; Table 6d) is reported as 11% and the “Efficacy in % found” value ([10]; application rate 20 ppm a.i.) is reported as 57%. The pest or weed control at 80 ppm ([8]; Table 9a, 80 ppm a.i.) was 0% and the pest or weed control at 80 ppm ([8]; application rate 80 ppm, wheat, preventive, evaluated 8 days after inoculation) was 0%.
In the case of `Cc1nn(C)c(F)c1C(=O)Nc1ccccc1C(C)CC(C)C` (stereo not drawn) [B2.20, penflufen], the “Efficacy in % found” value ([1]; Table 8a, 20 ppm) is reported as 14%, the “Efficacy in % found” value ([1]; Table 8b, 20 ppm a.i.) is reported as 29% and the “Efficacy in % found” value ([4]; application rate 20 ppm a.i.) is reported as 29%. For the same molecule, the “Efficacy in % found” value ([10]; application rate 20 ppm a.i.) was 29%, the “Efficacy in % found” value ([7]; 0.5 ppm a.i.) was 0% and the “Efficacy in % found” value ([8]; application rate 20 ppm, wheat, preventive, evaluated 8 days after inoculation) was 0%.
In the case of `Cn1cc(C(=O)Nc2ccccc2C2CC2C2CC2)c(C(F)F)n1` (stereo not drawn) [B2.22, sedaxane], the “Efficacy in % found” value ([1]; Table 8e, 80 ppm a.i.) is reported as 0%, the “Efficacy in % found” value ([2]; Table 2d, 0.5 ppm a.i.) is reported as 53% and the “Efficacy in % found” value ([4]; application rate 20 ppm a.i.) is reported as 14%. The “Efficacy in % found” value ([10]; application rate 20 ppm a.i.) was 0% and the “Efficacy in % found” value ([8]; Table 9a, 80 ppm a.i.) was 0%.
With `CO/C=C(/C(=O)OC)c1ccccc1Oc1cc(Oc2ccccc2C#N)ncn1` [B3.3, azoxystrobin] the “Efficacy in % found” value ([1]; Table 8e, 40 ppm a.i.) was 0%, the “Efficacy in % found” value ([3]; Table 1b, 1 ppm a.i.) was 50% and the “Efficacy in % found” value ([4]; application rate 10 ppm a.i.) was 29%. The “Efficacy in % found” value ([9]; Table 6a, 10 ppm a.i.) was 0% and the “Efficacy in % found” value ([7]; 2 ppm a.i.) was 50%.
Work on `CO/N=C(/C1=NOCCO1)c1ccccc1Oc1ncnc(Oc2ccccc2Cl)c1F` [B3.12, fluoxastrobin] yielded a pest or weed control at 10 ppm ([1]; Microdochium nivale, in Triticum aestivum, 120 h, read-out: Efficacy in % found, Table 8c, 10 ppm a.i.) of 50%, a pest or weed control at 10 ppm ([1]; Microdochium nivale, in Triticum aestivum, 120 h, read-out: Efficacy in % found, Table 8e, 10 ppm a.i.) of 43% and a pest or weed control at 0.5 ppm ([2]; read-out: Efficacy in % found, Table 2b, 0.5 ppm a.i.) of 61%. The pest or weed control at 2 ppm [3, 13] was 49%, the pest or weed control at 10 ppm [4, 14] was 14% and the pest or weed control at 40 ppm ([8]; Table 9a) was 43%. It also gave a pest or weed control at 10 ppm [8, 18] of 0%.
In the case of `Cc1ccc(C(C)NC(=O)[C@@H](NC(=O)OC(C)C)C(C)C)cc1` (stereo partly drawn) [B9.4, iprovalicarb], the “Efficacy in % found” value ([3]; Table 1a, 5 ppm a.i.) is reported as 48%, the “Efficacy in % found” value ([9]; Table 6e, 100 ppm a.i.) is reported as 0% and the “Efficacy in % found” value ([10]; application rate 100 ppm a.i.) is reported as 33%.
In the case of fludioxonil [B13.3], the “Efficacy in % found” value ([9]; Table 6e, 100 ppm a.i.) is reported as 0%, the “Efficacy in % found” value ([9]; Table 6f, 400 ppm a.i.) is reported as 13% and the “Efficacy in % found” value ([11]; Table 5a, 2.5 ppm a.i.) is reported as 53%. For the same molecule, the “Efficacy in % found” value ([11]; Table 5b, 0.5 ppm a.i.) was 0% and the “Efficacy in % found” value [6] was 0%.
For metalaxyl [B12.9], the “Efficacy in % found” value ([3]; Table 1a, 5 ppm a.i.) was 18%, the “Efficacy in % found” value ([4]; application rate 100 ppm a.i.) was 10% and the “Efficacy in % found” value [6] was 11%. For the same molecule, the “Efficacy in % found” value ([8]; Table 9c, 100 ppm a.i.) was 33% and the “Efficacy in % found” value ([8]; application rate 400 ppm a.i., wheat, preventive, evaluated 8 days after inoculation) was 0%.
pyrimethanil [B7.7] was tested, and the “Efficacy in % found” value ([11]; Table 5b, 10 ppm a.i.) was 24%, the “Efficacy in % found” value ([5]; Table 3b, 25 ppm) was 26% and the “Efficacy in % found” value [6] was 11%.
